According to patent US20190352297A1, “SELECTIVE AURORA A KINASE INHIBITORS” (UNIVERSITAT BERN, priority 2017, published 2019):

How the values were obtained:
Aurora A / TPX2 (1-43) = target: T1, Aurora A / TPX2 (1-43) (Homo sapiens, UniProt O14965); test: Microscale thermophoresis, Aurora A binding to labeled TPX2 1-43; details: excess 9, three independent measurements
T1 construct: human Aurora A kinase domain (residues 122-403 in the pET24-d vector); His-tag (cleaved yes); made in house; host or cells: E. coli BL21 (DE3) Rosetta (Aurora A); E. coli Bl21 (DE3) (TPX2)
T1 sequence (O14965 122-403): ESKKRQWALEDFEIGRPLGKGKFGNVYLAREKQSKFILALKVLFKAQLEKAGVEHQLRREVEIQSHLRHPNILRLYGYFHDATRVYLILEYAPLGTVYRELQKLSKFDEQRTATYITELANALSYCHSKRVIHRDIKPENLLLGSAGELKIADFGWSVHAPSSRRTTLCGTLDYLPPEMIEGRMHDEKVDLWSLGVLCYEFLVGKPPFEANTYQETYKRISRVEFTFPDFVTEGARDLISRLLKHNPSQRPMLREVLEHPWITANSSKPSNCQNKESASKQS
Method: TPX2 was labelled using the Monolith NT.115 protein labelling kit RED (NanoTemper Technologies). The labelling was performed according to the manufacturer's instructions in the supplied labelling buffer applying a concentration of 44 μM peptide at room temperature for 30 min. Labelled TPX2 was adjusted to 400 nM with final buffer and 0.05% Tween-20 (NanoTemper Technologies). Aurora A kinase with or without ligand was dissolved in final buffer supplemented with 0.05% Tween-20, and a series of 12 dilutions (1:1) was prepared in the identical buffer, keeping the DMSO/ligand concentration constant (final concentrations 0.5% and 125 μM, respectively). Final protein concentrations were between 4.4 nM and 150 μM. […] Thermophoresis was measured at room temperature with 5 s/30 s/5 s laser off/on/off times. […] Data of three independent measurements were analyzed (NT.Analysis software, version 1.5.41, NanoTemper Technologies) using the thermophoresis signal after 10 sec. Points measured above 4.7 μM Aurora A were rejected.

Aurora A bound to TPX2 = target: T2, Aurora A bound to TPX2 (Homo sapiens, UniProt O14965); test: Aurora A kinase activity and inhibition in the presence of TPX2; assay type: biochemical; details: TPX2 present
T2 construct: human Aurora A kinase domain (residues 122-403 in the pET24-d vector); His-tag (cleaved yes); made in house; host or cells: E. coli
T2 sequence (O14965 122-403): T1 sequence (O14965 122-403)
Method: Aurora A and AuroraB kinases were assayed using the homogeneous time-resolved fluorescence (HTRF) KinEASE STK2 kit from Cisbio (France). […] For both enzymes, the reactions were run for 30 min at room temperature and stopped by the addition of 10 μL of detection buffer containing EDTA, antiphospho-Ser/Thr antibody labelled with europium cryptate, and XL-665 conjugated streptavidin (62.5 nM final concentration). After incubation at room temperature for one hour, fluorescence was measured at 620 nm (europium cryptate) and 665 nm (XL-665) after excitation at 317 nm (lag time 60 μs, integration time 500 μs) using a Tecan Infinite M1000 PRO microplate reader (Greiner 384-well plates, white, non-binding, small volume). The ratio of fluorescence (665 nm/620 nm) was calculated for each well and the results were expressed as follows: specific signal=ratio (sample)−ratio (negative control), where ratio=665 nm/620 nm×10^4. […] Each concentration was measured in duplicates, and two independent determinations were made for each IC50 value. IC50 curves were generated using a four-parameter logistic model (XLfit from IDBS).

HeLa cells = test: Mitotic index of HeLa cells; assay type: cell-based, human
Method: HeLa Kyoto cells were cultured in high-glucose DMEM with GlutaMAX (Life Technologies) media supplemented with 10% fetal calf serum (FCS) in a humidified 5% CO2 incubator at 37° C. For plasmid transfections, cells were seeded at 80-90% confluence. 4 μg of plasmid DNA in 100 μl OptiMEM and 4 μl of Lipofectamine 2000 (Life Technologies) in 100 μl OptiMEM were incubated in parallel for 5 minutes, mixed for 20 minutes and added to each well. All Aurora A clones were constructed using full-length Aurora A as a template with appropriate PCR primer pairs. […] For determining the mitotic index and the chromosome misalignment phenotype, cells were incubated with various concentrations of compounds for 20 h before analysis. […] For rescue experiments, HeLa Kyoto cells were first transfected with GFP-Aurora A, GFP-Aurora AR137A or GFP-Aurora AW277A for 20 h, followed by incubation with 9 for another 20 h before cells were fixed with cold methanol and stained.

pThr288 Aurora A = test: Phosphorylation of Aurora A Thr288 in cells; assay type: cell-based, human; details: cells; read-out: cellular IC50 (pT288), phosphorylation of Aurora A Thr288
Method: HeLa Kyoto cells were cultured in high-glucose DMEM with GlutaMAX (Life Technologies) media supplemented with 10% fetal calf serum (FCS) in a humidified 5% CO2 incubator at 37° C. For plasmid transfections, cells were seeded at 80-90% confluence. 4 μg of plasmid DNA in 100 μl OptiMEM and 4 μl of Lipofectamine 2000 (Life Technologies) in 100 μl OptiMEM were incubated in parallel for 5 minutes, mixed for 20 minutes and added to each well. All Aurora A clones were constructed using full-length Aurora A as a template with appropriate PCR primer pairs. […] GFP-Aurora AR137A and GFP-Aurora AW277A were engineered using a site directed mutagenesis kit (Agilent Technologies, no. 210515) with appropriate primers. For determining the mitotic index and the chromosome misalignment phenotype, cells were incubated with various concentrations of compounds for 20 h before analysis. Cells were likewise treated with 0.25 μM MLN8237 (Selleckchem, no. S1133) or 5 μM ZM447439 (Selleckchem, no. S1103). For flow cytometry analysis, 50 nM […] and 2.5 μM ZM447439 were used. For rescue experiments, HeLa Kyoto cells were first transfected with GFP-Aurora A, GFP-Aurora AR137A or GFP-Aurora AW277A for 20 h, followed by incubation with 9 for another 20 h before cells were fixed with cold methanol and stained. To assess the impact of compound 9 on cell cycle progression, DNA content was analyzed after propidium iodide staining using FACS (BD Accuri C6 flow cytometer).
For immunofluorescence, cells were fixed in cold methanol, washed in PBT (PBS supplemented with 0.05% Tween-20) and stained with the following primary antibodies: 1:200 rabbit anti-pT288 (Cell Signaling, C39D8), 1:200 rabbit anti-pH3S10 (Cell Signaling, D2C8), 1:500 mouse anti-α-tubulin (Transduction Laboratories, 612709), 1:300 mouse anti-GFP (MAB3580, Millipore), 1:200 anti-TPX2 (Santa Cruz Biotechnology, sc-32863), anti-Aurora A (Invitrogen, 458900). Secondary antibodies were anti-mouse conjugated to Alexa488 or Alexa568, as well as anti-rabbit conjugated to Alexa488 or Alexa568, all used at 1:500 (Invitrogen). […]

[1] = In vitro reactivity towards glutathione (GSH); assay type: physicochemical; details: after 24 h with 5 mM GSH, pH 7.4, 37° C.
Method: […] Reaction scheme and structures of modified analogs. b. LC chromatogram of the reaction mixture after t=0 h and t=14 h. […] 9-methylcarbazole (tret=2.44 min) was used as internal control. c. Concentration of compound 9 during the course of the reaction as determined by integration of the absorption peaks (at 310 nm) of compound 9 at tret=1.78 min. The average of two independent experiments is shown, SD is <5% for all data points. d. Aurora A inhibition in the HTRF biochemical assay. (d) Cellular pThr288 Aurora-A levels of cells incubated with 9 or rac-92 overnight at the indicated concentrations. The experiment was repeated twice and the error bars represent SD. […] Numbers represent average IC50±SD of two independent experiments.

SMILES: CCc1ccc(N=C2SC(=Cc3ccnc(Nc4ccc(C(=O)O)cn4)c3)C(=O)N2C)cc1 [Compound 9]
- binding of Aurora to labeled TPX2 1-43 in the presence of inhibitor (Aurora A / TPX2 (1-43)): abolished
- IC50 (Aurora A bound to TPX2): 1.4 µM
- mitotic index (HeLa cells; 4 μM): ~15%
- mitotic index (HeLa cells; 10 μM): ~25%
- mitotic index (HeLa cells; 25 μM): ~40%
- IC50 (pThr288 Aurora A): 0.76 µM
- conversion to GSH adduct [1]: 50%
